Laboratory results from patent publication US4620971A, “Indium-bleomycin complex” (The United States of America as represented by the …, priority 1983, dated 1986).
“Also recorded” adds a separate entry of the source.

Columns and labels:
[1] = system: Glioma 26; experiment: Control experiment with cold InCl3, intratumor; type: in vivo, C57 BL/6 mice; settings: for Host weight / Tumor size: cold, i.t.
Experimental: Two control experiments were made with cold InCl3 (InCl3 that had been stored for 4 weeks and was practically nonradioactive, pH=1-3) and cold In-BLMC (prepared with nonradioactive InCl3 by the same method as that used for ^111 In-BLMC, final pH=1.5-3.0). At a tumor age of 6 days, ip injections were given daily for 3 days: Group VII (n=5)--0.2 ml of 0.9% NaCl; Group VIII (n=5)--In-BLMC carried by 0.004 mg BLM/g tumor weight in 0.2 ml of 0.9% NaCl. At a tumor age of 13 days, single doses were given it: Group IX (n=2)--0.7 ml of 0.9% NaCl/g tumor weight; Group X (n=3)--InCl, 0.7 ml/g tumor weight.
The tumor size (product of the three dimensions in mm^3) and body weight were measured daily for 16 days following the first injection. Host weight was obtained by subtracting tumor weight from body weight, where tumor weight (g)=tumor size (d1 d2 d3, mm^3)×0.00053

[2] = system: glioma; experiment: Gamma images - tumor imaging in glioma-bearing mice; type: in vivo; settings: 24 hr after i.p. injection
From the text: The 2- to 3-week-old glioma-bearing mice (tumor size: 1.0-1.5 cm) were given injections of ^111 In-BLMC, ^67 Ga-citrate, or ^111 In-BLM into the orbital sinus (or by ip injection). Images were taken with a gamma camera (Raytheon) immediately, 1, 2, 4, 24, and 48 hr after injection by using a pinhole collimator (1/4 inch diameter), with the distance of 12 cm between mouse and collimator. ^111 In-BLM, and ^111 In-BLMC were obtained according to Examples II and III; ^67 Ga-citrate was commercially obtained from New England Nuclear (NEN), Boston, Mass.

[3] = Whole body activity retained / excretion in normal mice; type: in vivo, C57BL/6 mice; settings: ip
Experimental: Male 6-week-old C57BL/6 untreated, not tumor-bearing, mice were given intraperitoneal (ip) injectons of 30-40 μCi of ^111 InCl3, ^111 In-BLM-B2, ^111 In-BLM, ^111 In-BLMC or ^57 Co-BLM. At 1, 2, 4, 24, 48, and 72 hr after injection of the radiopharmaceutical, the animal was made to urinate and then the whole body activity was measured in a dose calibrator (FIG. 8).

[4] = system: serum transferrin; experiment: Binding to serum transferrin, in vitro mixtures with plasma (gel electrophoresis); design: species or system mice
Experimental: Solutions of ^111 In-BLM, ^111 In-BLM-B2, ^111 -In-BLM-A2, ^111 In-BLMC and ^57 Co-BLM were analyzed by TLC using 10% ammonium acetate-methanol (1:1 v/v) as the eluant. After applying 0.2 μl of the samples, cold air was blown over the plate for 1-2 minutes. The plate was placed in a TLC cylinder containing freshly prepared eluant and the cylinder immediately covered with a glass plate. All cylinders were enclosed in a sealed plastic bag together with an open beaker containing eluant in order to maintain a saturated atmosphere. One to three, 48-hour urine samples from normal or gliomabearing mice given injections of ^111 In-BLM or one of its fractions were also analyzed by this TLC procedure. The same urine samples were also analyzed by gel electrophoresis on 5% agarose (Sigma or BRL low EEO) (Hoch, et al Anal Biochem. 78: 312-317, 1977). The aqueous gel was equilibrated against Co2 -saturated 0.02M NaHCO3 and the electrode chambers contained CO2 -saturated 0.1M NaHCO3. […] In vitro mixtures of 5 parts urine from untreated mice and 1 part of solution of ^111 In-BLM or its fraction were similarly analyzed immediately after mixing. […] The same gel electrophoresis procedure was used for ^111 In-BLM, ^111 In-BLMC, ^111 In-BLM-A2, ^111 In-BLM-B2 and ^57 Co-BLM; the dried plates were autoradiographed or analyzed with radiochromatogram scanner. […]

For `[Cl][In]([Cl])[Cl]` [InCl3], the “Tumor size vs NaCl, comparison” value ([1]; cold InCl3 i.t.) was “did not affect glioma; also recorded: the tumor sizes increased and were similar”, the Host weight ([1]; day 0 after therapy) was 20.3 ± 2.5 g and the Tumor size ([1]; day 0 after therapy) was 1238 ± 711 mm^3. The Host weight ([1]; day 1 after therapy) was 20.4 ± 1.6 g, the Tumor size ([1]; day 1 after therapy) was 1741 ± 701 mm^3 and the Host weight ([1]; day 2 after therapy) was 20.0 ± 1.6 g. The Tumor size ([1]; day 2 after therapy) was 1998 ± 559 mm^3, the Host weight ([1]; day 3 after therapy) was 20.0 ± 1.5 g and the Tumor size ([1]; day 3 after therapy) was 2496 ± 395 mm^3. It also gave a Host weight ([1]; day 4 after therapy) of 20.0 ± 1.5 g, a Tumor size ([1]; day 4 after therapy) of 2720 ± 503 mm^3 and a Host weight ([1]; day 5 after therapy) of 19.9 ± 1.6 g. For the same compound, the Tumor size ([1]; day 5 after therapy) was 3333 ± 276 mm^3, the Host weight ([1]; day 6 after therapy) was 17.9 ± 1.9 g and the Tumor size ([1]; day 6 after therapy) was 3882 ± 501 mm^3. For the same compound, the Host weight ([1]; day 7 after therapy) was 18.8 ± 2.9 g, the Tumor size ([1]; day 7 after therapy) was 5015 ± 936 mm^3 and the Host weight ([1]; day 8 after therapy) was 19.1 ± 2.4 g. For the same compound, the Tumor size ([1]; day 8 after therapy) was 5234 ± 1146 mm^3, the Host weight ([1]; day 9 after therapy) was 20.3 ± 3.8 g and the Tumor size ([1]; day 9 after therapy) was 5988 ± 492 mm^3.
With `O=C([O-])CC(O)(CC(=O)[O-])C(=O)[O-].[67Ga+3]` [^67 Ga-citrate] the “Accumulation of radioactivity in tumor (gamma images)” value [2] was “higher for ^111 In-BLMC (FIG. 9e) than that for ^67 Ga-citrate (FIG. 9d)” and the “Activity in liver and background (gamma images)” value [2] was “lower for ^111 In-BLMC than those for ^67 Ga-citrate or ^111 In-BLM”.
With `[Cl][111In]([Cl])[Cl]` [^111 InCl3] the “Rate of excretion (from percent activity retained)” value [3] was “rate of excretion increased in the following order, reflecting descreasing binding capacity for transferrin: ^111 InCl3, ^111 In-BLM-B2, ^111 In-BLM, ^57 Co-BLM, ^111 In-BLMC” and the Binding to transferrin [4] was “binds to serum transferrin in vitro”.
